How the values were obtained:
Test in all cases: relative viability (nuclei count vs DMSO), 5 days (fraction); higher = more cells survive
Pictilisib + Trametinib = compound: CS(=O)(=O)N1CCN(Cc2cc3nc(-c4cccc5[nH]ncc45)nc(N4CCOCC4)c3s2)CC1 [Pictilisib] + CC(=O)Nc1cccc(-n2c(=O)n(C3CC3)c(=O)c3c(Nc4ccc(I)cc4F)n(C)c(=O)c(C)c32)c1 [Trametinib] (partner 0.02 µM)
How it was run: (§1)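 Lung cancer cell lines were pin-tool dosed in 1536-well plates on the day after seeding, with either a lone drug or a fixed anchor-drug dose plus five library-drug doses (not always all listed) in √10 steps. Nuclei were counted on 4× images after 5 days. Relative viability is the ratio of treated-well to vehicle-well nuclei counts, with each value a median of duplicate plates.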

Pictilisib + Palbociclib = compound: CS(=O)(=O)N1CCN(Cc2cc3nc(-c4cccc5[nH]ncc45)nc(N4CCOCC4)c3s2)CC1 [Pictilisib] + CC(=O)c1c(C)c2cnc(Nc3ccc(N4CCNCC4)cn3)nc2n(C2CCCC2)c1=O [Palbociclib] (partner 0.5 µM)
How it was run: as §1

Pictilisib + Phenformin = compound: CS(=O)(=O)N1CCN(Cc2cc3nc(-c4cccc5[nH]ncc45)nc(N4CCOCC4)c3s2)CC1 [Pictilisib] + N=C(N)NC(=N)NCCc1ccccc1 [Phenformin] (partner 250 µM)
How it was run: as §1

MK-2206 + Crizotinib = compound: NC1(c2ccc(-c3nc4ccn5c(=O)[nH]nc5c4cc3-c3ccccc3)cc2)CCC1 [MK-2206] + C[C@@H](Oc1cc(-c2cnn(C3CCNCC3)c2)cnc1N)c1c(Cl)ccc(F)c1Cl [Crizotinib] (partner 1 µM)
How it was run: as §1

MK-2206 + Decitabine = compound: NC1(c2ccc(-c3nc4ccn5c(=O)[nH]nc5c4cc3-c3ccccc3)cc2)CCC1 [MK-2206] + Nc1ncn([C@H]2C[C@H](O)[C@@H](CO)O2)c(=O)n1 [Decitabine] (partner 2 µM)
How it was run: as §1

Cell Line: UMC-11
- relative viability (Pictilisib + Trametinib; first compound 0.02 µM): 0.671
- relative viability (Pictilisib + Trametinib; first compound 0.06325 µM): 0.872
- relative viability (Pictilisib + Trametinib; first compound 0.6325 µM): 0.735
- relative viability (Pictilisib + Trametinib; first compound 2 µM): 0.674
- relative viability (Pictilisib + Palbociclib; first compound 0.02 µM): 0.334
- relative viability (Pictilisib + Palbociclib; first compound 0.06325 µM): 0.318
- relative viability (Pictilisib + Palbociclib; first compound 0.6325 µM): 0.427
- relative viability (Pictilisib + Palbociclib; first compound 2 µM): 0.376
- relative viability (Pictilisib + Phenformin; first compound 0.02 µM): 0.331
- relative viability (Pictilisib + Phenformin; first compound 0.06325 µM): 0.346
- relative viability (Pictilisib + Phenformin; first compound 0.6325 µM): 0.312
- relative viability (Pictilisib + Phenformin; first compound 2 µM): 0.315
- relative viability (MK-2206 + Crizotinib; first compound 0.01 µM): 0.61
- relative viability (MK-2206 + Crizotinib; first compound 0.03162 µM): 0.569
- relative viability (MK-2206 + Crizotinib; first compound 0.3162 µM): 0.603
- relative viability (MK-2206 + Crizotinib; first compound 1 µM): 0.707
- relative viability (MK-2206 + Decitabine; first compound 0.01 µM): 0.669
- relative viability (MK-2206 + Decitabine; first compound 0.03162 µM): 0.643
- relative viability (MK-2206 + Decitabine; first compound 0.3162 µM): 0.569
- relative viability (MK-2206 + Decitabine; first compound 1 µM): 0.716
